From PubChem BioAssay (NCI)
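GI50 marks 50% less growth. TGI denotes the concentration required for complete inhibition of growth.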

Tests used:
Assay in all cases: NCI anticancer screen, dose series, 384-well format
[1] = test system: HCT-116 colon
[2] = test system: SF-295 CNS
[3] = test system: SK-MEL-2 melanoma
[4] = test system: SN12C renal
[5] = test system: CCRF-CEM leukemia
[6] = test system: NCI-H522 lung
[7] = test system: CAKI-1 renal
[8] = test system: UACC-62 melanoma
[9] = test system: IGROV1 ovarian
[10] = test system: MALME-3M melanoma
[11] = test system: MDA-MB-435 melanoma
[12] = test system: SF-539 CNS
[13] = test system: SF-268 CNS
[14] = test system: T-47D breast
[15] = test system: EKVX NSCLC
[16] = test system: HL-60(TB) leukemia
[17] = test system: KM12 colon
[18] = test system: RPMI-8226 leukemia
[19] = test system: SNB-19 CNS
[20] = test system: COLO 205 colon
[21] = test system: NCI-H460 NSCLC
[22] = test system: HOP-92 NSCLC
[23] = test system: NCI-H322M lung
[24] = test system: SR leukemia
[25] = test system: UACC-257 melanoma
[26] = test system: HT29 colon
[27] = test system: NCI-H23 lung
[28] = test system: OVCAR-3 ovarian
[29] = test system: U251 glioblastoma
[30] = test system: M14 melanoma
[31] = test system: 786-0 renal
[32] = test system: A549 NSCLC
[33] = test system: LOX IMVI melanoma
[34] = test system: SK-MEL-28 melanoma
[35] = test system: HCT-15 colon
[36] = test system: BT-549 breast
[37] = test system: HS 578T breast
[38] = test system: MDA-MB-231 breast
[39] = test system: SW-620 colon
[40] = test system: DU-145 prostate
[41] = test system: MDA-MB-468 breast
[42] = test system: HCC-2998 colon
[43] = test system: SK-MEL-5 melanoma
[44] = test system: MOLT-4 leukemia
[45] = test system: RXF 393 renal
[46] = test system: NCI/ADR-RES ovarian
[47] = test system: MCF7 breast
[48] = test system: A498 renal
[49] = test system: HOP-62 NSCLC
[50] = test system: PC-3 prostate
[51] = test system: UO-31 renal
[52] = test system: ACHN renal
[53] = test system: K-562 leukemia
[54] = test system: SK-OV-3 ovarian
[55] = test system: OVCAR-5 ovarian
[56] = test system: NCI-H226 lung
[57] = test system: OVCAR-4 ovarian
[58] = test system: TK-10 renal
[59] = test system: SNB-75 CNS

C[C@@H](N)C1CCC(C(=O)Nc2ccncc2)CC1 (stereo partly drawn)
GI50 [1]: > 100 µM | TGI [1]: > 100 µM | GI50 [2]: 77.8 µM | TGI [2]: > 100 µM | GI50 [3]: > 100 µM | TGI [3]: > 100 µM | GI50 [4]: > 100 µM | TGI [4]: > 100 µM | GI50 [5]: > 100 µM | TGI [5]: > 100 µM | GI50 [6]: > 100 µM | TGI [6]: > 100 µM | GI50 [7]: > 100 µM | TGI [7]: > 100 µM | GI50 [8]: > 100 µM | TGI [8]: > 100 µM | GI50 [9]: 80 µM | TGI [9]: > 100 µM | GI50 [10]: > 100 µM | TGI [10]: > 100 µM | GI50 [11]: > 100 µM | TGI [11]: > 100 µM | GI50 [12]: > 100 µM | TGI [12]: > 100 µM | GI50 [13]: 69.7 µM | TGI [13]: > 100 µM | GI50 [14]: 99.3 µM | TGI [14]: > 100 µM | GI50 [15]: > 100 µM | TGI [15]: > 100 µM | GI50 [16]: 64 µM | TGI [16]: > 100 µM | GI50 [17]: > 100 µM | TGI [17]: > 100 µM | GI50 [18]: 88.4 µM | TGI [18]: > 100 µM | GI50 [19]: > 100 µM | TGI [19]: > 100 µM | GI50 [20]: > 100 µM | TGI [20]: > 100 µM | GI50 [21]: > 100 µM | TGI [21]: > 100 µM | GI50 [22]: 75.8 µM | TGI [22]: > 100 µM | GI50 [23]: > 100 µM | TGI [23]: > 100 µM | GI50 [24]: 7.94 µM | TGI [24]: 21.9 µM | GI50 [25]: > 100 µM | TGI [25]: > 100 µM | GI50 [26]: 68.4 µM | TGI [26]: > 100 µM | GI50 [27]: > 100 µM | TGI [27]: > 100 µM | GI50 [28]: > 100 µM | TGI [28]: > 100 µM | GI50 [29]: 87.8 µM | TGI [29]: > 100 µM | GI50 [30]: > 100 µM | TGI [30]: > 100 µM | GI50 [31]: > 100 µM | TGI [31]: > 100 µM | GI50 [32]: > 100 µM | TGI [32]: > 100 µM | GI50 [33]: > 100 µM | TGI [33]: > 100 µM | GI50 [34]: > 100 µM | TGI [34]: > 100 µM | GI50 [35]: > 100 µM | TGI [35]: > 100 µM | GI50 [36]: 25.9 µM | TGI [36]: > 100 µM | GI50 [37]: 38.5 µM | TGI [37]: > 100 µM | GI50 [38]: > 100 µM | TGI [38]: > 100 µM | GI50 [39]: 92 µM | TGI [39]: > 100 µM | GI50 [40]: > 100 µM | TGI [40]: > 100 µM | GI50 [41]: 31 µM | TGI [41]: > 100 µM | GI50 [42]: 85.3 µM | TGI [42]: > 100 µM | GI50 [43]: > 100 µM | TGI [43]: > 100 µM | GI50 [44]: 50.7 µM | TGI [44]: > 100 µM | GI50 [45]: 40.9 µM | TGI [45]: > 100 µM | GI50 [46]: > 100 µM | TGI [46]: > 100 µM | GI50 [47]: 60.3 µM | TGI [47]: > 100 µM | GI50 [48]: > 100 µM | TGI [48]: > 100 µM | GI50 [49]: 77.4 µM | TGI [49]: > 100 µM | GI50 [50]: > 100 µM | TGI [50]: > 100 µM | GI50 [51]: > 100 µM | TGI [51]: > 100 µM | GI50 [52]: > 100 µM | TGI [52]: > 100 µM | GI50 [53]: 39.9 µM | TGI [53]: > 100 µM | GI50 [54]: > 100 µM | TGI [54]: > 100 µM | GI50 [55]: > 100 µM | TGI [55]: > 100 µM | GI50 [56]: > 100 µM | TGI [56]: > 100 µM | GI50 [57]: > 100 µM | TGI [57]: > 100 µM | GI50 [58]: > 100 µM | TGI [58]: > 100 µM | GI50 [59]: 55.9 µM | TGI [59]: > 100 µM
